The text below walks through data of article PMC10092844, “Inhibition profile of trifludimoxazin towards PPO2 target site mutations” (Pest Management Science, 2022).

Assay [1] concerns the target PPO2 wild-type (Amaranthus tuberculatus, UniProt Q0NZW9). Put plainly: in vitro inhibition assay, recombinant PPO2 enzyme. The class given is biochemical.
The test system of assay [2] is E. coli hemG strain. Put plainly: E. coli hemG growth assay (strain sensitivity). It counts as cell-based, Escherichia coli. The following applies: data not shown; probably impaired uptake or hydrolysis.
The target in assay [3] is T1, PPO2 wild-type in Escherichia coli hemG (Amaranthus tuberculatus, UniProt Q0NZW9).
T1 sequence (Q0NZW9 31-534): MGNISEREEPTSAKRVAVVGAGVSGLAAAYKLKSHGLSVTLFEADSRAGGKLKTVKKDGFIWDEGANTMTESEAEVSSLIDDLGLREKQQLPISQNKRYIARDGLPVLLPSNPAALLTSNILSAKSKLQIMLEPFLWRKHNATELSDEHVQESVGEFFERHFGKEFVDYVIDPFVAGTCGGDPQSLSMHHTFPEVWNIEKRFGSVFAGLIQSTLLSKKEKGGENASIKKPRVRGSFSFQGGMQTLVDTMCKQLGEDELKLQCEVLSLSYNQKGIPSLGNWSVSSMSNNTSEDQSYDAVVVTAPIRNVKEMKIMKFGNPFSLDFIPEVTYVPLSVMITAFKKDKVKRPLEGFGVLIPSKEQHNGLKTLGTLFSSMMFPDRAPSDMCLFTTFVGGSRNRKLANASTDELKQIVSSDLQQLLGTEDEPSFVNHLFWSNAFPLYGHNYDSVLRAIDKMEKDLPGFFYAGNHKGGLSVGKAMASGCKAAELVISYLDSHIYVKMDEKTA
The class given is cell-based. The following applies: read-out: IC50 (E. coli hemG growth).

Assay [4] deals with T2, PPO2 ΔG210 in Escherichia coli hemG (Amaranthus tuberculatus, UniProt Q0NZW9, DEL210-210, cells depend on it).
T2 sequence (Q0NZW9 with tags, fused parts or gaps DEL210-210): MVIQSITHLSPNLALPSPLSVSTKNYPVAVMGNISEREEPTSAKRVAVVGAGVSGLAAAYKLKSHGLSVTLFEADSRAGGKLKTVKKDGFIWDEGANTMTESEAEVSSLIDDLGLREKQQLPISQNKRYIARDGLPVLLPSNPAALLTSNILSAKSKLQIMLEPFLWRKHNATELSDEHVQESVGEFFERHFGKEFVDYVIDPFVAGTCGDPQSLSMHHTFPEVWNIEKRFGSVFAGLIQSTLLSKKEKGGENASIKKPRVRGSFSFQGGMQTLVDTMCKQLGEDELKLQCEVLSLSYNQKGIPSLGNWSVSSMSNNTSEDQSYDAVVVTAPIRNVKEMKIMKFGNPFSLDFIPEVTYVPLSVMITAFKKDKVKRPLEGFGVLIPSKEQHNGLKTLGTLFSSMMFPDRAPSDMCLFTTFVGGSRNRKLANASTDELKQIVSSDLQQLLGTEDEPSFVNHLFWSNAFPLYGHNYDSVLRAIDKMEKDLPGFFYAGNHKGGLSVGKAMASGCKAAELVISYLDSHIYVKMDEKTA
The class given is cell-based. As to conditions: read-out: IC50 (E. coli hemG growth).

Assay [5] deals with T1 35S::AMATU PPO2 R128M ΔG210 Arabidopsis lines. Put plainly: herbicide treatment of transgenic Arabidopsis T1 lines. It counts as in vivo, Arabidopsis thaliana. The following applies: foliar-applied 2×, 1×, 0.5× field dose, 7 days after treatment.
Assay [6] deals with T1 35S::AMATU PPO2 R128A ΔG210 Arabidopsis lines. The description is as above. The class given is in vivo, Arabidopsis thaliana. The following applies: foliar-applied 2×, 1×, 0.5× field dose, 7 days after treatment.
Assay [7] relates to T1 35S::AMATU PPO2 R128T ΔG210 Arabidopsis lines. Described as above. The class given is in vivo, Arabidopsis thaliana. As to conditions: foliar-applied 2×, 1×, 0.5× field dose, 7 days after treatment.
Assay [8] deals with T1 35S::AMATU PPO2 R128N ΔG210 Arabidopsis lines. The description is as above. The class given is in vivo, Arabidopsis thaliana. As to conditions: foliar-applied 2×, 1×, 0.5× field dose, 7 days after treatment.
The test system of assay [9] is T1 35S::AMATU PPO2 R128I ΔG210 Arabidopsis lines. The description is as above. The class given is in vivo, Arabidopsis thaliana. The following applies: foliar-applied 2×, 1×, 0.5× field dose, 7 days after treatment.
In assay [10] the test system is PPO1 enzyme carrying A212T mutation. Details: method as in PMID 31788953. The following applies: cited from earlier work.
The mark [11] stands for this setting: Wild-type PPO2, recombinant protein activity in vitro.

Like-named read-outs stand apart in the source and are kept apart here.

With `CS(=O)(=O)NC(=O)c1cc(Oc2ccc(C(F)(F)F)cc2Cl)ccc1[N+](=O)[O-]` [Fomesafen, fomesafen], in assay [1] (setting [11]), the IC50 was found to be 7.13 nM. For the same compound, the “sensitivity of E. coli hemG strain” value in [2] is listed as “not sensitive”.

As for `CCOC(=O)C(C)OC(=O)c1cc(Oc2ccc(C(F)(F)F)cc2Cl)ccc1[N+](=O)[O-]` (stereo not shown) [Lactofen, lactofen], the values for the IC50 in [1] (setting [11]), in assay [3] and in assay [4] were 0.415 nM, 62.4 nM and 357 nM, respectively.

For the compound `CC(C)N(C)S(=O)(=O)NC(=O)c1cc(-n2c(=O)cc(C(F)(F)F)n(C)c2=O)c(F)cc1Cl` [Saflufenacil, saflufenacil], the “herbicide efficacy, visual assessment of plant growth” value was “few T1 plants showed persistent growth with saflufenacil at the 2× and 0.5× rate” in [5]; “two T1 lines expressing R128A ΔG210 showed significant resistance at each applied rate” in assay [6]. Besides, the IC50 in assay [1] (read-out: IC50) is 1.89 nM; in assay [3], 31.9 nM; in assay [4], 2120 nM.

Consider `C#CCN1C(=O)C(F)(F)Oc2cc(F)c(-n3c(=O)n(C)c(=S)n(C)c3=O)cc21` [Trifludimoxazin, trifludimoxazin], for which the “herbicide efficacy, visual assessment of plant growth” value in assay [5] was “reduced by both trifludimoxazin and saflufenacil at 1×”; in [7], “more reduced by trifludimoxazin than saflufenacil at each rate”; in assay [8], “more reduced by trifludimoxazin than saflufenacil at each rate”; in [6] it was “reduced plant growth at 2×, 1× and 0.5× the rate of all five T1 plants”; in assay [9] it was “more controlled by trifludimoxazin than saflufenacil at all the used rates”. The half-maximal inhibitory concentration (IC50) in [1] (Wild-type PPO2, recombinant protein activity in vitro, read-out: IC50) worked out at 0.245 nM; in [3], 0.927 nM; in assay [4], 1.18 nM. Moreover, the “inhibition of PPO1 A212T enzyme” value in assay [10] is given as “fully inhibit”.

By IC50 is commonly meant the concentration at which inhibition is half-maximal.
